From US20040110177A1, “Method for identifying functional nucleic acids” (priority 2003, published 2004)

What was measured:
Format in all cases: cell-based, human
[1] = test system: clone 14 (apoptosis-resistant Hela S3 clone); assay: Anti-Fas (CH-11) induced apoptosis with kinase inhibitors, FACS sub-G1 nuclei, clone 14; conditions: clone 14, 100 ng/ml CH-11, no FCS; for change in number of apoptotic cells / apoptosis rate (in words): AG 1295 1 μM, PD 98059 25 μM; for increase in apoptosis: SU 5402 10 μM, SB 203580 10 μM
Experimental: (§1) Cells were grown in Ham's F12 medium without FCS and treated with 100 ng/ml anti-Fas antibody CH-11 with and without inhibitors. Apoptosis was measured by FACS analysis as described in the examples. SU 5402: 10 μM, AG 1295: 1 μM, SB 203580: 10 μM, PD 98059: 25 μM.
The cervix carcinoma cell line Hela S3 (ATCC CCL-2.2) was plated on 10 cm cell culture dishes (10^5 cells) in Ham's F12 growth medium containing 10% FCS. On the next day the medium was exchanged against medium without FCS supplemented with 100 ng/ml apoptosis activating anti-Fas antibody CH-11 (Coulter Immunotech). After 3 days when most of the cells were dead, the medium was exchanged once more against the medium containing 10% FCS without antibody. The surviving cells were clonally cultivated for 3 weeks. The clones were picked and expanded.
(§2) 50000 cells per well obtained from the parental cell line Hela S3 or from the clones, respectively, were grown in a 12 well cell culture dish for 2 days in 2 ml Ham's F12 medium containing 10% FCS. On the third day the cells were washed twice with 1 ml Ham's F12 medium and then the medium exchanged against 1 ml Ham's F12 medium. On the next day the medium was supplemented with the respective inhibitors and 100 to 200 ng/ml CH-11. On the next day the medium was decanted and transferred to an Eppendorf tube. The cells were washed once with 200 μl PBS, the PBS was transferred to the respective Eppendorf tube. Then the remaining cells were also transferred to the respective Eppendorf tube after treatment with EDTA/trypsin in PBS. The cells were pelleted by centrifugation, suspended in 500 μl hypotonic buffer (0.1% sodium citrate, 0.1% Triton-X100, 20 μg/ml propidium iodide) and incubated for 2-24 hours at 4° C. The resutling cell nuclei were analyzed by FACS.
(§3) The propidium iodide fluorescence of single nuclei was determined using a FACSCalibur (Becton Dickinson) cytometer. The forward scatter light (FSC) and the side scatter light (SSC) were recorded simultaneously. The FSC peak was adjusted at channel 500 in a 1024 channel linear scale and the red fluorescence peak at channel 200 of a logarithmic scale. The FSC cut-off value was determined by gating to 95% of the greatest nuclei of a negative control without supplements. Nuclei were classified as apoptotic when a subdiploid signal between the G1/G0 peak and channel 10 was present.

[2] = test system: Hela S3; assay: Anti-Fas (CH-11) induced apoptosis with kinase inhibitors, FACS sub-G1 nuclei, Hela S3; conditions: Hela S3, 100 ng/ml CH-11, no FCS; SU 5402 10 μM, AG 1295 1 μM, SB 203580 10 μM
Experimental: as §1, §2, §3

[3] = test system: clone 5 (apoptosis-resistant Hela S3 clone); assay: Anti-Fas (CH-11) induced apoptosis with kinase inhibitors, FACS sub-G1 nuclei, clone 5; conditions: clone 5, CH-11; SU 5402, AG 1295
Experimental: as §1
(§4) The cervix carcinoma cell line Hela S3 (ATCC CCL-2.2) was plated on 10 cm cell culture dishes (10^5 cells) in Ham's F12 growth medium containing 10% FCS. On the next day the medium was exchanged against medium without FCS supplemented with 100 ng/ml apoptosis activating anti-Fas antibody CH-11 (Coulter Immunotech). […]
(§5) 50000 cells per well obtained from the parental cell line Hela S3 or from the clones, respectively, were grown in a 12 well cell culture dish for 2 days in 2 ml Ham's F12 medium containing 10% FCS. […] The resutling cell nuclei were analyzed by FACS.
as §3, with “Nuclei were classified as apoptotic when a subdiploid signal between the G1/G0 peak and channel 10 was present.” left out

[4] = test system: clone 20 (apoptosis-resistant Hela S3 clone); assay: Anti-Fas (CH-11) induced apoptosis with kinase inhibitors, FACS sub-G1 nuclei, clone 20; conditions: clone 20, 100 ng/ml CH-11, no FCS; SB 203580 10 μM, PD 98059 25 μM
Experimental: as §1, §4, §5
as §3, with “Nuclei were classified as apoptotic when a subdiploid signal between the G1/G0 peak and channel 10 was present.” left out

| Compound | change in number of apoptotic cells / apoptosis rate (in words) [1] | increase in apoptosis [2] | increase in apoptosis [3] | change in apoptosis rate (in words) [4] | increase in apoptosis [1] [%] |
| --- | --- | --- | --- | --- | --- |
| Cc1cc2ncc(-c3ccccc3)nc2cc1C [AG 1295] | nearly in a doubling of the number of apoptotic cells | about 30% | 30% | – | – |
| COc1cccc(-c2cc(=O)c3ccccc3o2)c1N [PD 98059] | doubling of the apoptosis rate | – | – | triples the apoptosis rate | – |
| C[S+]([O-])c1ccc(-c2nc(-c3ccncc3)c(-c3ccc(F)cc3)[nH]2)cc1 (centres unmarked) [SB 203580] | – | 25% | – | slight increase of apoptosis | 60 |
| Cc1c[nH]c(/C=C2\C(=O)Nc3ccccc32)c1CCC(=O)O [SU 5402] | – | about 50% | about 50% | – | ~300 |
